In patent US6139840A, “Methods of eliciting an antibody response using flea protease proteins and homologs thereof” (priority 1997, dated 2000):
Like-named read-outs stand apart in the source and are kept apart here. Square brackets hold non-standard residues; d marks the D form. Peptide text beside a SMILES is read from it. * marks the point of attachment. Sta = CC(C)C[C@H](N)[C@@H](O)CC(=O)O; Isovaleryl = CC(C)CC(=O)*

Legend:
adult fleas = assay: Flea feeding system: viability and fecundity of fleas fed blood containing protease inhibitors; format: in vivo; settings: for Fecundity Days 1-7 / Adult Survival Female / Adult Survival Male / Adult Survival Total: percent of corresponding control group; for reduction in adult viability: not statistically significant
Description: This Example evaluates the effect of a number of protease inhibitors on flea viability and fecundity in a flea feeding system as described by Wade et al. ibid.
Protease inhibitor compounds were tested in groups of 3 to 6 including appropriate control groups. Inhibitors were not tested in groups of common inhibition types. Rather, they were tested in groups based on the diluent needed to dissolve them. (AEBSF, aprotinin, bestatin, leupeptin, phosphoramidon, soybean trypsin inhibitor and soybean trypsin/chymotrypsin inhibitor were dissolved in water; E-64 and pepstatin were dissolved in ethanol). This reduced the number of control (diluent only) groups needed within a particular assay. Inhibitor concentrations were chosen such that the lower concentration used was within the range recommended by the supplier for that inhibitor. The higher concentration was typically 10 times above the lower concentration and was used to look for dose response.
The general protocol for all of the assays was as follows: Approximately 2000 newly emerged adult fleas were placed in feeding chambers to feed on normal blood for about 24 to 48 hr. The fleas were prefed for two reasons: The first was to be certain that only fleas that would feed in the feeding system were used in the comparative study.
The prefed fleas were placed in "minifeeder" feeding chambers at a ratio of about 80 female fleas to about 20 male fleas for a total of about 100 fleas per chamber. Actual total number of fleas per chamber varied from about 90 to 125 fleas. […] Three chambers were prepared for each experimental and control group. A fresh blood meal containing the appropriate inhibitor in 3 ml total volume was placed on each chamber daily through the 7 day extent of an assay.
On days 3, 5, and 7 of the assay, surviving adult fleas were transferred to clean chambers. The contents of the original chambers were dissolved in about 40 ml of PBS (phosphate-buffered saline) in a 50 ml Falcon tube. The contents of a given tube were then filtered through a preweighed #1 Whatman filter disk inserted into a vacuum filter. The 50 ml tube and the filter funnel were rinsed with distilled water which was then passed through the filter. Once the chamber contents had been filtered, dead adult fleas were removed from the filter paper and placed in a labelled tube so that they could be counted and sexed. The filter paper was then placed into a preweighed 12×75 polypropylene tube and dried in the SpeedVac for 2.5 hr with the heater on. After drying the filter paper was weighed. The weight of the filter paper and tube was subtracted to obtain the dry weight of the eggs and this value was converted to an estimated number of eggs using the formula y=41384.361x+162.37, where x=dry weight of eggs.
On day 7, adult fleas that had survived the study were frozen, counted and sexed. The numbers were added to the number of male and female fleas that had died during the assay to verify the number of male and female fleas in each chamber at the start of the study.
Female, male and total adult flea survival were calculated for all experimental and control groups on days 3, 5, and 7 of each assay. Additionally, the number of eggs per surviving female was calculated on days 3, 5 and 7. Female fleas found dead on a given collection date were included in the total number of egg-laying females for the days between that date and the previous collection date, providing a conservative estimate of fecundity. Fecundity values were averaged for the three collection dates to obtain an average for each group over 7 days.
Results of these studies are presented below in Table 1 and FIG. 6 through FIG. 9. All survival and fecundity values are presented below as a percent of control value.

flea midgut proteases = assay: Protease substrate gel analysis of flea midguts with protease inhibitors in the incubation buffers; format: biochemical; settings: unfed and fed female midguts; AEBSF 1 mM, soybean trypsin inhibitor 100 μg/ml, leupeptin 10 μg/ml in all incubation buffers
Description: Protease substrate gels (available from Novex, San Diego, Calif., as Novex Zymogels) were 10% polyacrylamide-SDS gels with 0.1% gelatin. Samples and gels were processed according to Novex instructions. Briefly, samples were diluted in SDS-PAGE sample buffer without reducing agents. Tris-glycine SDS-PAGE was carried out by standard procedures. After electrophoresis, gels were incubated in 0.25% Triton X-100 at room temperature for 30 minutes (min), then in developing buffer (50 mM (millimolar) Tris-HCl pH 7.0, 5 mM CaCl2, 0.02% Brij 35, 0.2 M (molar) NaCl) at room temperature for 30 min, and then incubated with fresh developing buffer at 37° C., usually overnight. Gels were then stained 30 min in 0.5% coomassie R-250, 40% methanol, 10% acetic acid and destained in 40% methanol, 10% acetic acid.
Three unfed female midguts and 0.75 fed female midguts were evaluated in duplicate in several protease substrate gels. Each gel was cut in half. Half was processed as described in Example 2, while the other half contained protease inhibitors in all incubation buffers. The following inhibitors were evaluated:
Mixed-sex fed flea midguts were processed as described in U.S. Pat. No. 5,356,622, ibid. Aliquots of several steps of the procedure were evaluated by loading an equivalent of 0.4 midguts per lane of a protease substrate gel as described in Example 2. Samples were from the low speed supernatant (lanes 2 and 9), sonicated midguts (lanes 3 and 10), high speed supernatant (lanes 4 and 11), combined low and high speed supernatants (FGS) (lanes 5 and 12) and the high speed pellet (lanes 6 and 13). Lanes 7 and 8 contained 50 nanograms (ng) of trypsin as a control. Duplicate lanes were evaluated. The gel was cut in half, and lanes 1-7 were processed as described in Example 2, and lanes 8-14 were processed with 100 μg/ml soybean trypsin inhibitor in all the incubation buffers.

flea aminopeptidase = assay: Leu-AMC cleavage by serine protease-depleted flea midgut lysate; format: biochemical
Description: The starting material for the isolation of a flea aminopeptidase was a flea midgut lysate preparation that had been depleted of serine proteases by passage over a benzamidine-Sepharose affinity column. To assay for aminopeptidase activity, the synthetic substrate L-Leucine-AMC (Leu-AMC), which releases a fluorescent AMC leaving group upon proteolytic cleavage, was incubated with the serine protease-depleted flea midgut preparation. Aminopeptidase activity was easily detectable with as little as 1.2 μg of lysate, both confirming the presence of an aminopeptidase (as indicated in other Examples herein) and allowing for the detection of aminopeptidase activity in fractions collected throughout subsequent fractionation and purification procedures.

[1] = 1 μg/ml in blood meal, second 1 μg/ml line under E-64
[2] = 10 μg/ml in blood meal, second 10 μg/ml line under E-64
[3] = at the concentrations tested in blood meal
[4] = 1 mM pefabloc, 1 mg/ml trypsin/chymotrypsin inhibitor, 1 mg/ml trypsin inhibitor, 1 mM TPCK, 1 μg/ml pepstatin, 10 μg/ml E-64, 10 μg/ml leupeptin, 10 mM EDTA, 86 μg/ml bestatin, lysate about 1.2 μg and about 12 μg

Cl.NCCc1ccc(S(=O)(=O)F)cc1 [AEBSF, 4-2-aminoethyl-benzenesulfonylfluoride-hydrochloride]
Fecundity Days 1-7 (adult fleas; 0.3 mM in blood meal): 82.4% | Fecundity Days 1-7 (adult fleas; 0.5 mM in blood meal): 95.0% | Adult Survival Female (adult fleas; 5.0 mM in blood meal): 6.8% | Adult Survival Male (adult fleas; 5.0 mM in blood meal): 0.0% | Adult Survival Total (adult fleas; 5.0 mM in blood meal): 5.6% | Fecundity Days 1-7 (adult fleas; 5.0 mM in blood meal): 1.4% | Adult Survival Female (adult fleas; 6.0 mM in blood meal): 4.1% | Adult Survival Male (adult fleas; 6.0 mM in blood meal): 0.0% | Adult Survival Total (adult fleas; 6.0 mM in blood meal): 3.4% | Fecundity Days 1-7 (adult fleas; 6.0 mM in blood meal): 17.2% | reduction in flea fecundity (adult fleas; about 5 mM to about 6 mM in blood meal): more than 80% | adult survival (adult fleas; about 5 mM to about 6 mM in blood meal, p<0.05): reduced to near zero | effect on protease activity in protease substrate gel (flea midgut proteases): only inhibitors to have any effect

CC(C)CC(NC(=O)C1OC1C(=O)O)C(=O)NCCCCNC(=N)N [E-64, trans-epoxysuccinyl-L-leucylamido-(4-guanidino)butane]
Adult Survival Female (adult fleas; [1]): 77.3% | Adult Survival Male (adult fleas; [1]): 80.0% | Adult Survival Total (adult fleas; [1]): 77.5% | Fecundity Days 1-7 (adult fleas; [1]): 95.2% | Adult Survival Female (adult fleas; 1 μg/ml in blood meal): 99.9% | Fecundity Days 1-7 (adult fleas; 1 μg/ml in blood meal): 109.4% | Adult Survival Female (adult fleas; [2]): 90.2% | Adult Survival Male (adult fleas; [2]): 91.1% | Adult Survival Total (adult fleas; [2]): 90.6% | Fecundity Days 1-7 (adult fleas; [2]): 84.1% | Fecundity Days 1-7 (adult fleas; 10 μg/ml in blood meal): 177.4% | effect on fecundity (adult fleas; [3]): no statistically significant reduction in fecundity | total adult flea survival (adult fleas; dissolved in grain alcohol, 1 μg/ml in blood): small, but significant (p<0.05), reduction | total adult flea survival (adult fleas; in grain alcohol, 10 μg/ml in blood): not evident | inhibition of the flea protease that cleaved Leu-AMC (flea aminopeptidase; [4]): Only bestatin inhibited

CC(=O)N[C@@H](CC(C)C)C(=O)N[C@@H](CC(C)C)C(=O)N[C@H](C=O)CCCNC(=N)N [Leupeptin]
reduction in adult viability (adult fleas; 5 μg/ml in blood meal): 30% | Adult Survival Female (adult fleas; 5 μg/ml in blood meal): 71.0% | Adult Survival Male (adult fleas; 5 μg/ml in blood meal): 61.4% | Adult Survival Total (adult fleas; 5 μg/ml in blood meal): 68.4% | Fecundity Days 1-7 (adult fleas; 5 μg/ml in blood meal): 85.0% | effect on adult viability (adult fleas; 50 μg/ml in blood meal): not affected | Fecundity Days 1-7 (adult fleas; 50 μg/ml in blood meal): 77.6% | effect on fecundity (adult fleas; [3]): no effect on fecundity | effect on protease activity in protease substrate gel (flea midgut proteases): only inhibitors to have any effect | inhibition of the flea protease that cleaved Leu-AMC (flea aminopeptidase): Only bestatin inhibited

CC(C)CC(=O)N[C@H](C(=O)N[C@H](C(=O)N[C@@H](CC(C)C)[C@@H](O)CC(=O)N[C@@H](C)C(=O)N[C@@H](CC(C)C)[C@@H](O)CC(=O)O)C(C)C)C(C)C [Pepstatin A] (Isovaleryl-VV[Sta]A[Sta]-OH)
Adult Survival Female (adult fleas; 1 μg/ml in blood meal): 77.6% | Adult Survival Male (adult fleas; 1 μg/ml in blood meal): 96.6% | Adult Survival Total (adult fleas; 1 μg/ml in blood meal): 80.5% | Fecundity Days 1-7 (adult fleas; 1 μg/ml in blood meal): 67.7% | reduction in fecundity (adult fleas; 1 μg/ml in blood meal, significant (p<0.05)): 32% | Fecundity Days 1-7 (adult fleas; 10 μg/ml in blood meal): 83.9% | effect on adult viability (adult fleas; [3]): no significant effect on adult viability | inhibition of the flea protease that cleaved Leu-AMC (flea aminopeptidase): Only bestatin inhibited

CC(C)C[C@H](NP(=O)(O)O[C@@H]1O[C@@H](C)[C@H](O)[C@@H](O)[C@H]1O)C(=O)N[C@@H](Cc1c[nH]c2ccccc12)C(=O)O [Phosphoramidon]
Adult Survival Female (adult fleas; 10 μg/ml in blood meal): 98.8% | Adult Survival Male (adult fleas; 10 μg/ml in blood meal): 95.2% | Adult Survival Total (adult fleas; 10 μg/ml in blood meal): 97.8% | Fecundity Days 1-7 (adult fleas; 10 μg/ml in blood meal): 89.0% | Adult Survival Female (adult fleas; 100 μg/ml in blood meal): 70.2% | Adult Survival Male (adult fleas; 100 μg/ml in blood meal): 64.6% | Adult Survival Total (adult fleas; 100 μg/ml in blood meal): 69.7% | Fecundity Days 1-7 (adult fleas; 100 μg/ml in blood meal): 84.9% | effect on fecundity (adult fleas; [3]): no significant reduction in fecundity | reduction in adult viability (adult fleas; concentration not given): about 30%

Cc1ccc(S(=O)(=O)N[C@@H](Cc2ccccc2)C(=O)CCl)cc1 [TPCK, N-tosyl-L-phenylalanine chloromethyl ketone]
inhibition of the flea protease that cleaved Leu-AMC (flea aminopeptidase; [4]): Only bestatin inhibited

Cl.NCCc1ccc(S(=O)(=O)F)cc1 [pefabloc]
inhibition of the flea protease that cleaved Leu-AMC (flea aminopeptidase; [4]): Only bestatin inhibited
